Data on two molecules can be found in patent US20210145838A1, “SELECTIVE PDE4D INHIBITORS AGAINST DEMYELINATING DISEASES” (Universiteit Hasselt, priority 2018, published 2021).

Assay [1] concerns mice with EAE. In words: Experimental autoimmune encephalomyelitis (EAE) clinical score. The class given is in vivo, mouse. To be noted: prophylactic, 27 days. On the procedure:
Fifty-six ten-weeks-old female C57bl6 mice were immunized in the flank and neck with 200 μg/mouse MOG35-55 peptide (Hooke) emulsified in Complete Freund's Adjuvant containing Mycobacterium tuberculosis. Immediately after immunization, treatment was started and lasted for 27 days. Treatment consisted of twice a day a s.c. injection with a 1% DMSO in 0.5% methylcellulose solution, roflumilast (0.3 mg/kg or 3 mg/kg in vehicle) or gebr32a (0.3 mg/kg in vehicle). All animals were sacrificed at day 27. Animals were neurologically scored for clinical signs on a daily basis using the following scores: 0=normal behavior, 0.5=distal limp tail, 1=complete limp tail, 2=limp tail and hind leg inhibition, 2.5=limp tail and weakness of hind legs, 3=limp tail and dragging of hind legs, 3.5=limp tail, complete paralysis of hind legs and animal is unable to right itself when placed on its side, 4=limp tail, complete hind leg paralysis and partial front leg paralysis, 4.5=limp tail, complete hind leg paralysis, partial front leg paralysis and no movement around the cage, 5=death.
Ten-weeks-old female C57bl6 mice (n=56) were immunized in the flank and neck with 200 μg/mouse MOG35-55 peptide (Hooke) emulsified in Complete Freund's Adjuvant containing Mycobacterium tuberculosis. Immediately after immunization, treatment was started and lasted for 27 days. […]

Assay [2] concerns cuprizone demyelinated mice. In words: In vivo remyelination in cuprizone-demyelinated mice (MBP IHC, mbp qPCR, TEM G ratio). Also noted: species or system mouse.
Description: (§1) FIG. 8: MBP expression in the corpus callosum upon PDE4 inhibition. A) IHC; B no IHC. Forty-two eleven-weeks-old male C57bl6 mice were either subjected to a cuprizone treatment to induce demyelination (n=32) or left without treatment (control; n=10) for six weeks (day 0-42). From day 40 till day 49, the control mice and part of the cuprizone-treated mice (vehicle; n=10) received a vehicle treatment, receiving a s.c. injection with a 1% DMSO in 0.5% methylcellulose solution twice a day. The remaining cuprizone-treated mice received a roflumilast treatment (roflu 1 mg/kg (n=11) or roflu 3 mg/kg (n=11) in vehicle) twice a day from day 40-49. All animals were sacrificed at day 49. Brains were isolated at anteroposterior coordinates from −0.3 to −1.5 mm was cut in the midsagittal plane and used for slicing and immunohistochemistry (IHC) against MBP.
as §1, with “9:” for “8:”, “hippocampus” for “corpus callosum”, “inhibition.” for “inhibition. A) IHC; B no IHC.”, “immunohistochemistry” for “immunohistochemistry (IHC)”
FIG. 10: MBP expression in the corpus callosum upon PDE4 inhibition. C57bl6 mice were either subjected to a cuprizone treatment to induce demyelination or left without treatment for six weeks (day 0-42). From day 40 till day 49, the control mice and part of the cuprizone-treated mice received a vehicle treatment, receiving a s.c. injection with a 1% DMSO in 0.5% methylcellulose solution twice a day. The remaining cuprizone-treated mice received a roflumilast treatment (roflu 1 mg/kg or roflu 3 mg/kg in vehicle) twice a day from day 40-49. All animals were sacrificed at day 49. The left part of the corpus callosum at bregma Y-Z was used for TEM and subsequent G ratio measurement. G ratio is the ratio of the inner axonal diameter to the total outer diameter representing myelination of axons (e.g. a higher G ratio represents a demyelination). […] Data are expressed as mean±SEM with. (*p<0.05, **p<0.01, ***p<0.001). Control (n=5), vehicle (n=5), roflu 1 mg/kg (n=7), and roflu 3 mg/kg (n=9).
FIG. 12: MBP expression in the corpus callosum upon PDE4 inhibition. Thirty-six eleven-weeks-old male C57bl6 mice were either subjected to a cuprizone treatment to induce demyelination (n=27) or left without treatment (control; n=9) for six weeks (day 0-42). From day 40 till day 49, the control mice and part of the cuprizone-treated mice (vehicle; n=9) received a vehicle treatment, receiving a s.c. injection with a 1% DMSO in 0.5% methylcellulose solution twice a day. The remaining cuprizone-treated mice received a gebr32a treatment (gebr32a 0.1 mg/kg (n=9) or gebr32a 0.3 mg/kg (n=9) in vehicle) twice a day from day 40-49. All animals were sacrificed at day 49. Brains were isolated at anteroposterior coordinates from −0.3 to −1.5 mm was cut in the midsagittal plane and used for slicing and immunohistochemistry against MBP.
FIG. 13. MBP expression in the dendate gyrus upon PDE4D inhibition. Thirty-six eleven-weeks-old male C57bl6 mice were either subjected to a cuprizone treatment to induce demyelination (n=27) or left without treatment (control; n=9) for six weeks (day 0-42). From 20 day 40 till day 49, the control mice and part of the cuprizone-treated mice (vehicle; n=9) received a vehicle treatment, receiving a s.c. injection with a 1% DMSO in 0.5% methylcellulose solution twice a day. […]
A general note: Quantitative PCR measures a nucleic acid by following its amplification.

The mark [3] stands for this setting: 0.1 mg/kg s.c. twice a day, day 40-49.
[4] abbreviates: 0.3 mg/kg s.c. twice a day, day 40-49, vs vehicle treated mice.
Where [5] appears, read: 3 mg/kg s.c. twice a day, day 40-49.
Where [6] appears, read: 3 mg/kg s.c. twice a day, day 40-49, vs vehicle-treated cuprizone mice.

As for `OC(CN1CCOCC1)Cn1ccc(-c2ccc(OC(F)F)c(OC3CCCC3)c2)n1` (centres unmarked) [Gebr32a], the “Clinical score of EAE mice” value in assay [1] (0.3 mg/kg s.c. twice a day) was “no effect”. Besides, in assay [2] (setting [3]), the “MBP expression in the corpus callosum (IHC)” value is “not sufficient to significantly improve MPB expression” and the “MBP expression in the dendate gyrus (IHC)” value is “not sufficient to significantly improve MPB expression”. In addition, in assay [2] (setting [4]), the “MBP expression in the corpus callosum (IHC)” value is reported as “significantly increased MBP expression” and the “MBP expression in the dendate gyrus (IHC)” value was “significantly increased MBP expression”. For the same molecule, the “Remyelination-inducing dosage compared to roflumilast treatment” value in assay [2] (lower dosage, 0.3 mg/kg vs 3 mg/kg) is recorded as 10 fold.
On to `O=C(Nc1c(Cl)cncc1Cl)c1ccc(OC(F)F)c(OCC2CC2)c1` [roflumilast], for which, in assay [1] (0.3 mg/kg and 3 mg/kg s.c. twice a day), the “Disease score of EAE mice, dose dependence” value is listed as “dose-dependent decrease in disease score”. Besides, in assay [2] (1 mg/kg and 3 mg/kg s.c. twice a day, day 40-49), the “Relative mbp gene expression in the corpus callosum (qPCR)” value was “not altered”. In addition, in assay [2] (1 mg/kg s.c. twice a day, day 40-49), the “G ratio in the corpus callosum (TEM)” value is “re-establishment of the G ratio to control levels”. Further, in assay [2] (1 mg/kg s.c. twice a day, vs non-demyelinated control), the “mbp mRNA expression in the corpus callosum (qPCR) compared to the control” value was “reduced mbp mRNA expression”. In addition, in assay [2] (setting [5]), the “G ratio in the corpus callosum (TEM)” value is listed as “re-establishment of the G ratio to control levels”; the “MBP expression in hippocampus CA1 and CA3 (IHC)” value is given as “not in the cornu amonis 1 (CA1) or 3 (CA3)”. Further, in assay [2] (setting [6]), the “MBP expression in the corpus callosum (IHC)” value is given as “increased MBP expression” and the “MBP expression in the dendate gyrus (IHC)” value is reported as “increased MBP expression”.
